US8415469B2, “Compounds and methods for kinase modulation, and indications therefor” (Plexxikon Inc., priority 2005, dated 2013)
pIC50: −log10 of the molar value.

Legend:
Assay type in all cases: biochemical
Jnk2 = target: T1, Jnk2 (Homo sapiens, UniProt P45984); experiment: AlphaScreen kinase assay, Jnk2; conditions: read-out: IC50, activity toward kinase Jnk2
T1 construct: purchased Roche Protein Expression Group (Indianapolis, IN)
Method in brief: (§1)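 Biotinylated peptide substrate is phosphorylated by kinase; anti-phosphopeptide antibody on acceptor beads and streptavidin donor beads bring emission when substrate is phosphorylated. Inhibition lowers acceptor signal. Compounds from 20 mM DMSO stock tested as 8-point 1:3 serial dilutions.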

Kdr = target: T2, Kdr (Homo sapiens, UniProt P35968); experiment: Z'-Lyte FRET kinase assay (Invitrogen), Kdr; conditions: read-out: IC50, activity toward kinase Kdr
T2 construct: purchased Invitrogen (assay run by Invitrogen)
T2 sequence (P35968 20-1356): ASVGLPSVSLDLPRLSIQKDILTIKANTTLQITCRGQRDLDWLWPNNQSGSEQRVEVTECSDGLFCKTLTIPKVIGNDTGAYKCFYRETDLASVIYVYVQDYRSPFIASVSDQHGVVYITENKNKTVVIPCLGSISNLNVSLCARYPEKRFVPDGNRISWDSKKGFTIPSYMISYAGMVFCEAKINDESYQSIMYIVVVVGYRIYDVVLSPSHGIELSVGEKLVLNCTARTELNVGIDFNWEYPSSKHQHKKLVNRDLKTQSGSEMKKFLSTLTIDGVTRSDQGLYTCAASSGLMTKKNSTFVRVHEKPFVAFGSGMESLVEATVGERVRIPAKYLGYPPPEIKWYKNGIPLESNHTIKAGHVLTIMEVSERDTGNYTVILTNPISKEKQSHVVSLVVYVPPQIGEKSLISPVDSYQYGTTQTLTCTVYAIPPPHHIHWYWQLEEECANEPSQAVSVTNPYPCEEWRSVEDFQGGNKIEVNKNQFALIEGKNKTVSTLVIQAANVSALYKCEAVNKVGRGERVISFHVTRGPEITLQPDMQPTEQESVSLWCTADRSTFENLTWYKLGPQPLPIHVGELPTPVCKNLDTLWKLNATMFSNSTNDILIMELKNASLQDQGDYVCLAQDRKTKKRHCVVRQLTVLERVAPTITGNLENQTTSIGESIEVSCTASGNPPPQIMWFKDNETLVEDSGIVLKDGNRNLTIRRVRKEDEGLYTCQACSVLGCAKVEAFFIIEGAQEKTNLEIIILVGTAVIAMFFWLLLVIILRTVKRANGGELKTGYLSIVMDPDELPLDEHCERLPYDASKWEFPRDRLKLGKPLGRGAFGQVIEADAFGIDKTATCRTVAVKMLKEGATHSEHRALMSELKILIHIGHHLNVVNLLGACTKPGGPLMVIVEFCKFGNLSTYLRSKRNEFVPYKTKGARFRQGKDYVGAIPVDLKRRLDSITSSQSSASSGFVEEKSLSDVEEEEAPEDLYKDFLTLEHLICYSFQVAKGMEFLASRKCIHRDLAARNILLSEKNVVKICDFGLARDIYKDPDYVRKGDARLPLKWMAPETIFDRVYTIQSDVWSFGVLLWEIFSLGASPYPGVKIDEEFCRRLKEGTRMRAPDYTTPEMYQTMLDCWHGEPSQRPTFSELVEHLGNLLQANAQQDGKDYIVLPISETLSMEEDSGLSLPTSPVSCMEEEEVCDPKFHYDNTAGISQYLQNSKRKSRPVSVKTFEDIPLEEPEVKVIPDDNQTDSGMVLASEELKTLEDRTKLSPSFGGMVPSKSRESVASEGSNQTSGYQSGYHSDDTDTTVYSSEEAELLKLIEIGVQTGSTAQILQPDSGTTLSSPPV

Kit = target: T3, Kit (Homo sapiens, UniProt P10721); experiment: AlphaScreen kinase assay, Kit; conditions: read-out: IC50, activity toward kinase Kit
T3 construct: P1332.N6 BI PTP KIT M552-K948-X COD; His6 (N); made in house; host or cells: E. coli (PTP1B co-expressed)
T3 sequence (P10721 with tags, fused parts or gaps): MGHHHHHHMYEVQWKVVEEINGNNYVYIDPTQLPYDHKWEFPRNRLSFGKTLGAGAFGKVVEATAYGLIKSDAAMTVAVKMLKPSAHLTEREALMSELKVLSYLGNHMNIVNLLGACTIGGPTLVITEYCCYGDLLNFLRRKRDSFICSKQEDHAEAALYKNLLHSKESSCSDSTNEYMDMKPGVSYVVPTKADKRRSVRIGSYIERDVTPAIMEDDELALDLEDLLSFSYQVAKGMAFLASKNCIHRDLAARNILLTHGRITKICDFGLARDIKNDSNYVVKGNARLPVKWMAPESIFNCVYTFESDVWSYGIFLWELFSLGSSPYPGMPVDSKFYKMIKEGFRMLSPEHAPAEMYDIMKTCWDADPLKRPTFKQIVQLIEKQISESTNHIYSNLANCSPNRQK

PKC theta = target: T4, PKC theta (Homo sapiens, UniProt Q04759); experiment: Z'-Lyte FRET kinase assay (Invitrogen), PKC theta; conditions: read-out: IC50, activity toward kinase PKC theta
T4 construct: purchased Invitrogen (Carlsbad, Calif.), screening service
T4 sequence (Q04759 whole entry): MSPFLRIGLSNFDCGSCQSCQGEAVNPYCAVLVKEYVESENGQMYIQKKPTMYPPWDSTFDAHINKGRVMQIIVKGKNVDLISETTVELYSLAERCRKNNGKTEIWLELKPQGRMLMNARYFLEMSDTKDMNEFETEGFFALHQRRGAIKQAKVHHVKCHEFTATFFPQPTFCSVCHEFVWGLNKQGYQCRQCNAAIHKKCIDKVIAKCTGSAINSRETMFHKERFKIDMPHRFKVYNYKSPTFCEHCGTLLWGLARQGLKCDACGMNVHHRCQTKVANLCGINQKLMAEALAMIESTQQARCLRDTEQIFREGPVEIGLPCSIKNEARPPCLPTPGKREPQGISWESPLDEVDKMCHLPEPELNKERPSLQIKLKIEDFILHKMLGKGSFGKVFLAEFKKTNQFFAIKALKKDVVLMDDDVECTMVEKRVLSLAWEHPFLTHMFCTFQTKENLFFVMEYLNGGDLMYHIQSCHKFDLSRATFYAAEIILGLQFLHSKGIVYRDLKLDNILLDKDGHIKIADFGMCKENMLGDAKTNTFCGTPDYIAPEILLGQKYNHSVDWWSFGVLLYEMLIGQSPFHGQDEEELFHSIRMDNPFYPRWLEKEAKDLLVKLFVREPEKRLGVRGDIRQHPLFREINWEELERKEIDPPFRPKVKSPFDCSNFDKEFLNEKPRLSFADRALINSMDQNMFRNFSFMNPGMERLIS
Excerpt: The effect of potential modulators of kinase activity can be measured in a variety of different assays known in the art. For example, direct radiometric, indirect FRET or AlphaScreen assays may be used to assess the level of phosphorylation of a substrate in the presence of test compounds in order to determine the inhibitory affect of the compound on the kinase. Invitrogen (Carlsbad, Calif.) uses a FRET based assay for Btk, EGFR, EphB2, Flt3, lrak4, Kdr, MAP2K1, MAPKAPK2, PDGFRB, PKC theta, Stk6 and Yes. For these assays, compounds of the invention were screened by Invitrogen using Z′-Lyte™ kinase assay.
Briefly, the Invitrogen kinase assay involves use of a specific peptide substrate optimized for each kinase, containing a fluorophore at each end that make up the FRET pair. The peptide sensitivity to proteolytic cleavage depends on phosphorylation of the peptide. Non-phosphorylated peptide is cleaved by a protease while peptide phosphorylated by the kinase is not cleaved. Cleavage of the peptide disrupts the FRET between the donor (coumarin) and acceptor (fluorescein) fluorophores, resulting in an increase in the ratio of donor emission to acceptor emission. The emission ratio of coumarin to fluorescein is used to assess the reaction progress. The extent of phosphorylation is determined from the emission ratio, which is low when the kinase is active (phosphorylated peptide is not cleaved, FRET pair connected) or higher for inhibited kinase (non-phosphorylated peptide is cleaved, FRET pair separated). Thus, the assay involves a kinase reaction in the presence of varying concentrations of a given compound, a development reaction with site specific protease, and detection of the fluorescent emission ratio of coumarin and fluorscein. […] Reaction conditions for each kinase are determined to provide optimal reaction times, incubation temperature, kinase and ATP concentrations. Test samples are made up in 1× kinase buffer (50 mM HEPES pH 7.5, 50 mM MgCl2, 5 mM EGTA, 0.05% BRIJ-35) and compound at desired concentration prepared in DMSO such that the final DMSO is 1%. […] Typically, assay plates are prepared to 10 μl final volume per sample, adding 2.5 μl of compound at 4× the desired concentration in 4% DMSO (serial dilution of compound provides concentration curve), 5 μl of the desired kinase mixed with Z′-LYTE™ peptide substrate (2× in 2× kinase buffer, final peptide at 2 μM), and 2.5 μl of 4×ATP solution. All kinase except for MAP2K1 were at 10 μM ATP in the kinase reaction, while MAP2K1 was at 100 μM. Samples are mixed and the kinase reaction is incubated 1 hour at room temperature, after which 5 μl of development solution is added and mixed. After incubation for another 1 hour at room temperature, 5 μl of stop reagent is added to each sample and mixed. The fluorescence signals are measured to determine the emission ratio.

Pyk2 = target: T5, Pyk2 (Homo sapiens, UniProt Q14289); experiment: AlphaScreen kinase assay, Pyk2; conditions: read-out: IC50, activity toward kinase Pyk2
T5 construct: purchased Upstate Biotechnology
T5 sequence (Q14289 whole entry): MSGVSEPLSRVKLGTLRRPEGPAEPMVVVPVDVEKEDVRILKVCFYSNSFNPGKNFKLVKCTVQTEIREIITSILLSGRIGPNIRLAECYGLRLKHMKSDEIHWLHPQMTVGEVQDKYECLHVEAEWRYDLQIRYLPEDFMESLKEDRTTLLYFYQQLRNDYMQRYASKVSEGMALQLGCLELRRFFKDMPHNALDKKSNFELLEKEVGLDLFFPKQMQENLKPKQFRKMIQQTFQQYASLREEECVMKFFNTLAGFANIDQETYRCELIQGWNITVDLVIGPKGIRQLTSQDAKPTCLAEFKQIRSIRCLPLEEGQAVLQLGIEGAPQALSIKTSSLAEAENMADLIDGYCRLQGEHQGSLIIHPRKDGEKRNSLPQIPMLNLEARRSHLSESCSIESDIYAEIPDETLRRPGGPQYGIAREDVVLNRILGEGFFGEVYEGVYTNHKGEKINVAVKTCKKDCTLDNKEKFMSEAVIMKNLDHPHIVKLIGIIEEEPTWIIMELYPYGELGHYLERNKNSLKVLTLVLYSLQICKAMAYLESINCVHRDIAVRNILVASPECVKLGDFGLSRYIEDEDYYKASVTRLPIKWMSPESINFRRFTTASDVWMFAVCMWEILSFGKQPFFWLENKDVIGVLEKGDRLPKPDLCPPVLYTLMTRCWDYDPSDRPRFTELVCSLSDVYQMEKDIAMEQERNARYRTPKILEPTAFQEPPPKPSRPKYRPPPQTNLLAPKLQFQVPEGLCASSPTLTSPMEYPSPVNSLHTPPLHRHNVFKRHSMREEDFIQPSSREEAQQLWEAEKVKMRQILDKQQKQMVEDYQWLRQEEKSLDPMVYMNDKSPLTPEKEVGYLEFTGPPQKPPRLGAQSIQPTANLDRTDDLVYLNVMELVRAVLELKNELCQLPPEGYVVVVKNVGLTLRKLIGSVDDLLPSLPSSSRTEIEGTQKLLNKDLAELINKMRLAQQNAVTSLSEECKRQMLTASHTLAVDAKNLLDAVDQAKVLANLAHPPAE

Ret = target: T6, Ret (Homo sapiens, UniProt P07949); experiment: AlphaScreen kinase assay, Ret; conditions: read-out: IC50, activity toward kinase Ret
T6 construct: P1378.pET-SF BI-PTP RET H661-R1012 HIS; made in house
T6 sequence (P07949 with tags, fused parts or gaps): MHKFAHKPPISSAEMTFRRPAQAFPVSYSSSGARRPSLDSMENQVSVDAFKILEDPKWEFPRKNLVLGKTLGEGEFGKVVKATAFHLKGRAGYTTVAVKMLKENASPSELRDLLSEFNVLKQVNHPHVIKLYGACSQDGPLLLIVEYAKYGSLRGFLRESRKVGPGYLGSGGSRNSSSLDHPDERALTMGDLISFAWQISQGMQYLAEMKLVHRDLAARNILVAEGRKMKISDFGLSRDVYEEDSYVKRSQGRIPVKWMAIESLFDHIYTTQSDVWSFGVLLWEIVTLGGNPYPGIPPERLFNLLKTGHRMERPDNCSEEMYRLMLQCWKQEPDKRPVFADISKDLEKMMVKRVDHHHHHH

Stk6 = target: T7, Stk6 (Homo sapiens, UniProt O14965); experiment: Z'-Lyte FRET kinase assay (Invitrogen), Stk6; conditions: read-out: IC50, activity toward kinase Stk6
T7 construct: purchased Invitrogen (Carlsbad, Calif.), screening service
T7 sequence (O14965 1-403): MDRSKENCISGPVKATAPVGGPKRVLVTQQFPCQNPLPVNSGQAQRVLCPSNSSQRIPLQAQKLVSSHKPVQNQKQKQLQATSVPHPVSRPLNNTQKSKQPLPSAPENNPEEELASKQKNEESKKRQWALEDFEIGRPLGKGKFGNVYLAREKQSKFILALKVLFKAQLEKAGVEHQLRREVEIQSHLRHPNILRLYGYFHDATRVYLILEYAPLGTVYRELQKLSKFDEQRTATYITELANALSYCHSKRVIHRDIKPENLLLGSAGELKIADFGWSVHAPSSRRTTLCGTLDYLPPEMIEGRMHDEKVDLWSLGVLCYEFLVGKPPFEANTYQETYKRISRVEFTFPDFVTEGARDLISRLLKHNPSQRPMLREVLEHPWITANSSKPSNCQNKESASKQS
Excerpt: For example, direct radiometric, indirect FRET or AlphaScreen assays may be used to assess the level of phosphorylation of a substrate in the presence of test compounds in order to determine the inhibitory affect of the compound on the kinase. […] For these assays, compounds of the invention were screened by Invitrogen using Z′-Lyte™ kinase assay.
Briefly, the Invitrogen kinase assay involves use of a specific peptide substrate optimized for each kinase, containing a fluorophore at each end that make up the FRET pair. The peptide sensitivity to proteolytic cleavage depends on phosphorylation of the peptide. Non-phosphorylated peptide is cleaved by a protease while peptide phosphorylated by the kinase is not cleaved. Cleavage of the peptide disrupts the FRET between the donor (coumarin) and acceptor (fluorescein) fluorophores, resulting in an increase in the ratio of donor emission to acceptor emission. The emission ratio of coumarin to fluorescein is used to assess the reaction progress. […] Thus, the assay involves a kinase reaction in the presence of varying concentrations of a given compound, a development reaction with site specific protease, and detection of the fluorescent emission ratio of coumarin and fluorscein. […] Reaction conditions for each kinase are determined to provide optimal reaction times, incubation temperature, kinase and ATP concentrations. Test samples are made up in 1× kinase buffer (50 mM HEPES pH 7.5, 50 mM MgCl2, 5 mM EGTA, 0.05% BRIJ-35) and compound at desired concentration prepared in DMSO such that the final DMSO is 1%. […] All kinase except for MAP2K1 were at 10 μM ATP in the kinase reaction, while MAP2K1 was at 100 μM. Samples are mixed and the kinase reaction is incubated 1 hour at room temperature, after which 5 μl of development solution is added and mixed. After incubation for another 1 hour at room temperature, 5 μl of stop reagent is added to each sample and mixed. The fluorescence signals are measured to determine the emission ratio.

MAP4K4 = MAP4K4 (Homo sapiens, UniProt O95819); experiment: AlphaScreen kinase assay, MAP4K4; conditions: read-out: IC50, activity toward kinase MAP4K4
Zap70 = target: T8, Zap70 (Homo sapiens, UniProt P43403); experiment: AlphaScreen kinase assay, Zap70; conditions: read-out: IC50, activity toward kinase Zap70
T8 construct: P1868.pFastBac1 ZAP70 D327-G606 HIS, WT; His7 (HHHHHHH) (C); made in house
T8 sequence (P43403 with tags, fused parts or gaps): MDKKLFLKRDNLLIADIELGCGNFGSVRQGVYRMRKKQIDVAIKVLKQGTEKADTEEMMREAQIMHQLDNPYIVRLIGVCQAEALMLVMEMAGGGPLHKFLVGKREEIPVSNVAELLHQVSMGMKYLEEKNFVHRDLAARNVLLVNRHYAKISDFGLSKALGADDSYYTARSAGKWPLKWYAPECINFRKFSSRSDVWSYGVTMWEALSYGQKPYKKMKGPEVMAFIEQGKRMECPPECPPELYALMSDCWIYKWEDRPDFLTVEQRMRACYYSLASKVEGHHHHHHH
Method in brief: as §1

B-Raf = target: T9, B-Raf (Homo sapiens, UniProt P15056); experiment: AlphaScreen kinase assay, B-Raf; conditions: read-out: IC50, activity toward kinase B-Raf
T9 construct: purchased Upstate Biotechnology

B-Raf V600E = target: T10, B-Raf V600E (Homo sapiens, UniProt P15056, V600E); experiment: AlphaScreen kinase assay, B-Raf V600E; conditions: read-out: IC50, activity toward kinase B-Raf V600E
T10 construct: P4254. pFastBacBD-CDC37 BRAF D437-K722-X, V600E; His6 with pFastBac HT leader (TEV site) (N); made in house; host or cells: Sf9 (baculovirus; chaperone CDC37 co-expressed)
T10 sequence (P15056 with tags, fused parts or gaps V600E): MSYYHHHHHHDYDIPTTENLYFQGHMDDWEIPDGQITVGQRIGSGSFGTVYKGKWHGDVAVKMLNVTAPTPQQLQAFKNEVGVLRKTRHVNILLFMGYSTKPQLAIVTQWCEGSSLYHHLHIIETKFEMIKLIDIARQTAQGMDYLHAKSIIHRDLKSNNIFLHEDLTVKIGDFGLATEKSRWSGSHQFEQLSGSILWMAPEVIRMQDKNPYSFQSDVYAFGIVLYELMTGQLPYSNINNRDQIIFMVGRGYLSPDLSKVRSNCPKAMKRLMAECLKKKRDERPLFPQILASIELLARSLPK

Btk = target: T11, Btk (Homo sapiens, UniProt Q06187); experiment: Z'-Lyte FRET kinase assay (Invitrogen), Btk; conditions: read-out: IC50, activity toward kinase Btk
T11 construct: purchased Invitrogen (assay run by Invitrogen)

c-Raf-1 = target: T12, c-Raf-1 (Homo sapiens, UniProt P04049); experiment: AlphaScreen kinase assay, c-Raf-1; conditions: read-out: IC50, activity toward kinase c-Raf-1
T12 construct: purchased Upstate Biotechnology
Excerpt: AlphaScreen assay was used to screen additional kinases. The assay is similarly dependent on the phosphorylation of a peptide substrate. In this assay, an antibody that recognizes phosphorylated substrate is bound to an acceptor bead. The peptide substrate is attached to biotin, which binds to a donor head that contains streptavidin. Thus phosphorylated substrate is bound by antibody and streptavidin, bringing the donor and acceptor heads into close proximity when kinase is not inhibited. The donor produces singlet oxygen which results in emission from the acceptor when they are in close proximity. Conversely, when kinase is inhibited, the donor and acceptor beads are not associated and the emission from the acceptor is reduced.
AlphaScreen assays were done using compounds dissolved in DMSO to a concentration of 20 mM. The compounds were diluted accordingly to the desired final concentrations in each sample well, using 1:3 serial dilution for a total of 8 concentration points. Plates were prepared such that each kinase reaction is 20 μl in 1× kinase buffer, 5% DMSO and 10 μM ATP. After incubation of the kinase reaction for 1 hour at room temperature, 5 μl of donor beads in stop buffer (50 mM EDTA in 1× kinase buffer) was added, the sample was mixed and incubated for 20 minutes at room temperature before adding 5 μl of acceptor beads in stop buffer. The samples were incubated for 60 minutes at room temperature and the signal per well was read on AlphaQuest reader.

Fak = target: T13, Fak (Homo sapiens, UniProt Q05397); experiment: AlphaScreen kinase assay, Fak; conditions: read-out: IC50, activity toward kinase Fak
T13 construct: P1358.pFastBacHtb FAK S411-Q686-X; His6 with pFastBacHTb leader (TEV site) (N); made in house; host or cells: Sf9 (baculovirus)
T13 sequence (Q05397 411-686): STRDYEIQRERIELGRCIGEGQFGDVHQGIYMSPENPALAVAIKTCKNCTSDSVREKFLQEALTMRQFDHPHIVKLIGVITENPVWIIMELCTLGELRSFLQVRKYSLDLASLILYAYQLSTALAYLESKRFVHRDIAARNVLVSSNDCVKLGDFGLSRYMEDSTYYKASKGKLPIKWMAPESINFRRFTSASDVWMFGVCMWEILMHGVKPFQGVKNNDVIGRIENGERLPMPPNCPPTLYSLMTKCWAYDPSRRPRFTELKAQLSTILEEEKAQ

FGFR1 = target: T14, FGFR1 (Homo sapiens, UniProt P11362, C488A/C584S); experiment: AlphaScreen kinase assay, FGFR1; conditions: read-out: IC50, activity toward kinase FGFR
T14 construct: P1351.pET N6 BI-PTP FGFR A458-E765-X C488A, C584S; made in house; host or cells: E. coli (PTP1B co-expressed)

Flt1 = target: T15, Flt1 (Homo sapiens, UniProt P17948); experiment: AlphaScreen kinase assay, Flt1; conditions: read-out: IC50, activity toward kinase Flt1
T15 construct: P1826.pETN6 BI-PTP FLT1 M799-D1165-X WT; His6 (N); made in house; host or cells: E. coli (PTP1B co-expressed)
T15 sequence (P17948 with tags, fused parts or gaps): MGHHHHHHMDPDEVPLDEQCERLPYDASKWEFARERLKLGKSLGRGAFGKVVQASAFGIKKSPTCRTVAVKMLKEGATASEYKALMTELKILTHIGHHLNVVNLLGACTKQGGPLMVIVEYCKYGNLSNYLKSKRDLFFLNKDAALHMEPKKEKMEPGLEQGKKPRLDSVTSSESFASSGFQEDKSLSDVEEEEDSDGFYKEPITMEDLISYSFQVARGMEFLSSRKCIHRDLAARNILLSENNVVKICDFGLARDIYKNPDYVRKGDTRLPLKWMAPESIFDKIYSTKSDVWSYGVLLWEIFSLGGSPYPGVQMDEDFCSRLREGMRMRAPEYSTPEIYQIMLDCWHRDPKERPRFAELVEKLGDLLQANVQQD

Fms = target: T16, Fms (Homo sapiens, UniProt P07333); experiment: AlphaScreen kinase assay, Fms; conditions: read-out: IC50, activity toward kinase Fms
T16 construct: purchased Upstate Biotechnology

Jnk1 = target: T17, Jnk1 (Homo sapiens, UniProt P45983); experiment: AlphaScreen kinase assay, Jnk1; conditions: read-out: IC50, activity toward kinase Jnk1
T17 construct: purchased Upstate Biotechnology
T17 sequence (P45983 whole entry): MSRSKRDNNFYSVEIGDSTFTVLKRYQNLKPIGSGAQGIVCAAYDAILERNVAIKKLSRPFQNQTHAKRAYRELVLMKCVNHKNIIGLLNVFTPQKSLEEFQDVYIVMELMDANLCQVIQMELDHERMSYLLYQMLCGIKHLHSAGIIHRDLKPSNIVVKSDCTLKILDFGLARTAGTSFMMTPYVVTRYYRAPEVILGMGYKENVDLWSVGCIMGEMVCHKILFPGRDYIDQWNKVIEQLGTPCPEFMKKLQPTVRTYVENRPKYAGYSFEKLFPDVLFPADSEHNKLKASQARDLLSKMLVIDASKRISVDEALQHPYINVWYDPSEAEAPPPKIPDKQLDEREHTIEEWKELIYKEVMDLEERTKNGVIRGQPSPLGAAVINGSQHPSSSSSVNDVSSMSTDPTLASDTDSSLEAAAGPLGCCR

Jnk3 = target: T18, Jnk3 (Homo sapiens, UniProt P53779); experiment: AlphaScreen kinase assay, Jnk3; conditions: read-out: IC50, activity toward kinase Jnk3
T18 construct: purchased Upstate Biotechnology

Src = target: T19, Src (Homo sapiens, UniProt P12931); experiment: AlphaScreen kinase assay, Src; conditions: read-out: IC50, activity toward kinase Src
T19 construct: P1144. pET-N6 BI-PTP SRC V86-L536-X; made in house

Yes = target: T20, Yes (Homo sapiens, UniProt P07947); experiment: Z'-Lyte FRET kinase assay (Invitrogen), Yes; conditions: read-out: IC50, activity toward kinase Yes
T20 construct: purchased Invitrogen (Carlsbad, Calif.), screening service
Method in brief: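 Read-out is the coumarin-to-fluorescein emission ratio, which rises when unphosphorylated peptide is cleaved by the development protease. Reactions contain serially diluted compound, 2 μM peptide and 10 μM ATP and run for 1 h at room temperature before 1 h development.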

Akt3 = Akt3 (Homo sapiens, UniProt Q9Y243); experiment: AlphaScreen kinase assay, Akt3; conditions: read-out: IC50, activity toward kinase Akt3
Method in brief: as §1

Measured: pIC50

T1 sequence (P45984 whole entry): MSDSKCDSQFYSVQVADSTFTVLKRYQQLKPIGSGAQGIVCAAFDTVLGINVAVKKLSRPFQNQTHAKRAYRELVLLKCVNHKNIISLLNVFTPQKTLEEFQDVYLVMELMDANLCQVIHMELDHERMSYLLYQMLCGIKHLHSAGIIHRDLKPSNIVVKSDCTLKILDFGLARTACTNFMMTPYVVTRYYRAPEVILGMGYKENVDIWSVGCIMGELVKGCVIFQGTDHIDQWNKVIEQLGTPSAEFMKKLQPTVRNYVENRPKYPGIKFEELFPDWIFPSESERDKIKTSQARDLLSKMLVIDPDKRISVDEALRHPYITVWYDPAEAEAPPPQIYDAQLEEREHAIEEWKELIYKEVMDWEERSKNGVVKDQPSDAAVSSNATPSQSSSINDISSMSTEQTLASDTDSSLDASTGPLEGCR

O=C1Nc2ccccc2/C1=C/c1c[nH]c2ncccc12 [Compound P-0069]
≥ 5.00: Jnk2 | Kdr | Kit | PKC theta | Pyk2 | Ret | Stk6 | MAP4K4

CC(=O)Nc1cccc(-c2ccnc3[nH]ccc23)c1 [Compound P-0030]
≥ 5.00: Kdr | Kit | PKC theta | Stk6 | Zap70

O=C(c1ccc(O)cc1Cl)c1c[nH]c2ncc(-c3cccs3)cc12 [Compound P-0112]
≥ 5.00: B-Raf | B-Raf V600E | Btk | c-Raf-1 | Fak | FGFR1 | Flt1 | Fms | Jnk1 | Jnk3 | Kdr | Kit | PKC theta | Pyk2 | Src | Yes | Akt3
